Experimental data published in patent US20100113334A1, “METHODS FOR REDUCING OR PREVENTING TRANSMISSION OF NOSOCOMIAL PATHOGENS IN A HEALTH CARE FACILITY” (priority 2003, published 2010).

How the values were obtained:
[1] = test system: indigenous stool microflora; test: DGGE of PCR-amplified bacterial ribosomal RNA genes from stool (Example 3); assay type: in vivo, mice; settings: subcutaneous clindamycin
Candida glabrata A239 = test: Minimum-inhibitory concentration for Candida glabrata A239; assay type: cell-based; settings: clinical isolate A239
Experimental: Pathogens Studied: E. faecium C68, a previously described VanB-type clinical VRE isolate, was used for the following murine VRE experiments (Donskey et al., J. Microbial. Meth. 1807: 1-8, 2003). […] Klebsiella pneumoniae P62 is a clinical isolate that produces an SHV type extended-spectrum β-lactamase (ESBL). Candida glabrata A239 is a clinical isolate with a fluconazole minimum-inhibitory concentration of 2 μg/mL.

[2] = test system: clinical isolate VanA strain of E. faecium (VRE); test: VRE suppression in a mouse model (Example 1); assay type: in vivo, mice
Description: (§1) Mice were colonized with a clinical isolate VanA strain of E. faecium (VRE) isolated from a septicemic patient. A single inoculation of 5×10^8 cfu VRE by oral gavage (Day 0) was followed by treatment with vancomycin in the drinking water to maintain colonization. On day 22, each group received the same vancomycin-containing drinking water. […] The control group consisted of five mice, while the ramoplanin group consisted of four mice.

Total Enterococci = test: VRE suppression in a mouse model (Example 1), total enterococci in faeces; assay type: in vivo, mice
Description: as §1

[3] = Day 22, prior to ramoplanin therapy
[4] = Day 29, completion of ramoplanin therapy
[5] = Day 36, 7 days after completion of ramoplanin therapy

CCC[C@@H]1C[C@@H](C(=O)N[C@@H]([C@H]2O[C@H](SC)[C@H](O)[C@@H](O)[C@H]2O)[C@H](C)Cl)N(C)C1 [clindamycin]
stool DGGE patterns, mean similarity indices in comparison to pre-treatment patterns [1]: 17%

OC(Cn1cncn1)(Cn1cncn1)c1ccc(F)cc1F [fluconazole]
minimum-inhibitory concentration (Candida glabrata A239): 2 µg/mL

CN[C@H](CC(C)C)C(=O)N[C@H]1C(=O)N[C@@H](CC(N)=O)C(=O)N[C@H]2C(=O)N[C@H]3C(=O)N[C@H](C(=O)N[C@H](C(=O)O)c4cc(O)cc(O)c4-c4cc3ccc4O)[C@H](O)c3ccc(c(Cl)c3)Oc3cc2cc(c3O[C@@H]2O[C@H](CO)[C@@H](O)[C@H](O)[C@H]2O[C@H]2C[C@](C)(N)[C@H](O)[C@H](C)O2)Oc2ccc(cc2Cl)[C@H]1O [vancomycin]
Enterococci: VRE [2, 3]: 9.7 log 10 cfu/g faeces | Enterococci: VRE [2, 4]: 9.4 log 10 cfu/g faeces | % Mice with VRE ([2]; Day 29, completion of ramoplanin therapy (15 mg/kg/day in drinking water, with 25 mg/kg/day vancomycin)): 100% | % Mice with VRE [2, 5]: 100% | Enterococci: VRE [2, 5]: 9.3 log 10 cfu/g faeces | Enterococci: Total Enterococci (Total Enterococci; [3]): 9.6 log 10 cfu/g faeces | Enterococci: Total Enterococci (Total Enterococci; [4]): 9.3 log 10 cfu/g faeces | Enterococci: Total Enterococci (Total Enterococci; [5]): 9.6 log 10 cfu/g faeces
